In ChEMBL document CHEMBL4304782, “Antioxidant, Anti-inflammatory, and Neuroprotective Effects of Novel Vinyl Sulfonate Compounds as Nrf2 Activator” (ACS Med Chem Lett, 2019):

Biological target: T1, Nuclear factor erythroid 2-related factor 2 (Homo sapiens, UniProt Q16236)
T1 sequence (Q16236 whole entry): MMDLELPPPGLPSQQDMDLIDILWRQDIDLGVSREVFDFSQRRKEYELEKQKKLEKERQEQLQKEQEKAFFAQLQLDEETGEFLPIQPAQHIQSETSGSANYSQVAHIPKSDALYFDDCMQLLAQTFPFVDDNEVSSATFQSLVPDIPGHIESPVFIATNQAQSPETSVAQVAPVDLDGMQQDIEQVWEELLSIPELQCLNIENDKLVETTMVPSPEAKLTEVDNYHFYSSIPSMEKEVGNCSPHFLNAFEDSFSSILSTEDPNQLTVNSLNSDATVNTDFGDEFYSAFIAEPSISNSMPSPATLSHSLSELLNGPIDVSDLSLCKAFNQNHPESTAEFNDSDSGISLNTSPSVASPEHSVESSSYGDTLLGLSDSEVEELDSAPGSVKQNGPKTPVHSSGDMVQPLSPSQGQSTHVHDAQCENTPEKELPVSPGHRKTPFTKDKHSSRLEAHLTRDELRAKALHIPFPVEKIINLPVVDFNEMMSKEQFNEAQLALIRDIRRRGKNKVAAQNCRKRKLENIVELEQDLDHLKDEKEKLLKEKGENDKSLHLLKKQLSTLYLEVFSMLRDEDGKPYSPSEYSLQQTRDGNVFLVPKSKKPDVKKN
Assay: Activation of ED-tagged Nrf2 in human U2OS cells co-expressing Keap1 assessed as induction of NRF2 translocation to nucleus after 6 hrs by beta-galactosidase based chemiluminescent assay
Assay type: cell-based

| Structure (SMILES) | EC50 |
| --- | --- |
| COc1cccc(NS(=O)(=O)/C=C/c2ccccc2Cl)c1 | > 10000 nM |
| O=S(=O)(/C=C/c1ccccc1)Nc1ccccc1 | > 10000 nM |
| COc1ccccc1OS(=O)(=O)/C=C/c1ccc(Cl)cc1 | 1330 nM |
| O=S(=O)(/C=C/c1ccccc1Cl)Nc1ccccc1 | > 10000 nM |
| COc1ccc(OS(=O)(=O)/C=C/c2cccc(Cl)c2)cc1 | 948 nM |

Now from value to molecule:

| EC50 | Structure (SMILES) |
| --- | --- |
| 1480 nM | COc1ccc(OS(=O)(=O)/C=C/c2ccccc2)cc1 |
| 1040 nM | O=S(=O)(/C=C/c1ccccc1)Oc1ccccc1 |
| 1160 nM | COc1ccc(OS(=O)(=O)/C=C/c2ccc(Cl)cc2)cc1 |
